Assay results from patent US20100021567A1, “Peganine Isolated from Anisotes Trisulcus L. as a Smoking Deterrent and Anorxigenic Agent” (priority 2006, published 2010).
Entries after “also recorded” stand apart in the source; their conditions may differ.

Key:
[1] = in vivo; cited from earlier work
[2] = system: dopamine turnover in the mesolimbic system; details: dose 5.6 mg/kg; nicotine 1 mg/kg; rats; cited from earlier work
[3] = system: Albino mice; assay: Nicotine-induced convulsions and death in mice; assay type: in vivo
Protocol: Albino mice were divided into different groups (N=5) and injected with different doses of nicotine dissolved in water. The animals were injected (i.p) with doses 0.8, 1.6, 3.2 and 6.4 mg/kg. The animals were continuously observed for 2 hours for appearance of any changes in behavior such as tremors, convulsions (clonic or tonic), abnormal movements changes in tail position and shapes, changes in locomotor activity and death.
Then after 5 minutes nicotine LD25 was then administered and the animals were observed continuously for any changes in behavior, convulsions or death. The time of convulsions and death were recorded.

[4] = system: Male Wistar rats; assay: Nicotine and food consumption in rats; assay type: in vivo
Protocol: Male Wistar rats (200 g body weight) were divided at random into various groups (N=6 animals per group). Each animal was placed in a stainless steel cage and provided with a known weight of normal rat chow food pellets and drinking bottle containing a known volume of aqueous 0.025% sodium carboxymethylcellulose containing either nicotine acid tartarate to provide a final concentration of 40 μg/ml (in case of control groups) or the same concentration of nicotine plus the indicated concentrations of the whole extract, one of its fractions or peganine. The latter were added in form of their emulsions in 0.25% aqueous sodium carboxymethylcellulose in volumes that provide a final concentration of 0.025% of sodium carboxymethylcellulose in the drinking fluid. The animals were allowed both food and the drinking liquid ad libitum. The room temperature where the animals were placed was maintained at 23±2° C. The light cycle was kept at 12 h light and 12 h dark. The relative humidity was maintained at 75±5%. Both food and drinking liquid consumptions were measured every 2 days and at the end of the treatment which continued for complete seven consecutive days.
All results were reported as their means±s. e. mean with N=number of experiments. Statistical significance between control and treated groups were performed using student's t-test.

[5] = cited from earlier work
[6] = peganine 140 mg/100 ml (1.4 mg/ml) + nicotine 40 μg/ml, vs control
[7] = peganine 140 mg/100 ml + nicotine 40 μg/ml in drinking water, 7 days

(−)-cytisine
Blood brain barrier penetrability [1]: poor blood brain barrier penetrability

c1cnc2cc3c(cc2n1)[C@@H]1CNC[C@H]3C1 [vareniciline]
Effect on nicotine-induced increase in dopamine turnover [2]: significantly blocked

CN1CCCC1c1cccnc1 (stereo not drawn) [Nicotine]
Actions ([3]; Nicotine 1.6 mg/kg (i.p)): f) No death; also recorded: a) Increase in locomotor activity; also recorded: b) Raising of tail; also recorded: c) Tremors; also recorded: d) Shaking of the body; also recorded: e) Increase in respiratory rate | Actions ([3]; Nicotine 3.2 mg/kg (i.p)): a) Tremors; also recorded: b) Fanning of tail; also recorded: c) Convulsions (Clonic-type); also recorded: d) Tremors; also recorded: e) Salivation; also recorded: f) No death | Actions ([3]; Nicotine 6.4 mg/kg (i.p)): a) Circular movements; also recorded: b) Convulsions; also recorded: c) Death after 3 minutes

O[C@H]1CCN2Cc3ccccc3N=C12 [peganine, 1,2,3,9-tetrahydropyrolo[2,1-b]quinazolin-3-ol]
% decrease in food consumed [4, 6]: 77.8% | % decrease in nicotine consumed [4, 6]: 79% | Liquid consumed daily per 200 g rat per day [4, 7]: 5.5 ± 0.13 mL | Quantity of food consumed per 200 g rat per day [4, 7]: 5.66 ± 0.3 g | Quantity of nicotine consumed per day [4, 7]: 0.22 mg | Effect on isolated gut ([5]; isolated gut): inhibit peristalsis of isolated gut | Cardiac effect ([5]; isolated heart): negative inotropic effect of peganine with reduced coronary flow
